# Source: patent US9695155B2, “Herbicidal substituted pyrimidinyloxy benzene compounds” (E. I. DU PONT DE NEMOURS AND COMPANY, priority 2013, dated 2017)
# Legend:
# waterhemp = assay: Test C preemergence; assay type: in vivo, Amaranthus rudis; details: for Waterhemp plant response rating: preemergence; for Plant response rating, Waterhemp: Preemergence, 31 g ai/ha, scale 0 to 100, 0 no effect, 100 complete control
# Outline: (§1)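 Seeds were sown in loam–sand blend and sprayed preemergence, while plants at 1- to 4-leaf stage (2–18 cm) in peat-based medium received postemergence sprays; test chemicals were formulated in a non-phytotoxic solvent with surfactant. After 13–15 days in a greenhouse, injury was rated visually against controls, 0 (no effect) to 100 (complete control).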
# pigweed = assay: Test C preemergence; assay type: in vivo, Amaranthus retroflexus; details: for Pigweed plant response rating: preemergence; for Plant response rating, Pigweed: Preemergence, 31 g ai/ha, scale 0 to 100, 0 no effect, 100 complete control
# Outline: as §1
# lambsquarters = assay: Test C preemergence; assay type: in vivo, Chenopodium album; details: for Lambsquarters plant response rating: preemergence; for Plant response rating, Lambsquarters: Preemergence, 31 g ai/ha, scale 0 to 100, 0 no effect, 100 complete control
# Outline: as §1
# ragweed [1] = assay: Test A preemergence; assay type: in vivo, Ambrosia elatior; details: for Plant response rating, Ragweed: 125 g ai/ha, 0 to 100 scale where 0 is no effect and 100 is complete control; for Ragweed plant response rating: 500 g ai/ha, 0 to 100 scale, 0 no effect, 100 complete control, approx. 10 days
# Outline: (§2)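 Visual 0–100 rating (100 = complete control) taken about 10 d post-treatment relative to untreated checks. Preemergence: directed soil spray on sown loam/sand pots. Postemergence: seedlings 2–10 cm, 1–2 leaf. Non-phytotoxic solvent formulation with surfactant.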
# yellow nutsedge = assay: Test C preemergence; assay type: in vivo, Cyperus esculentus; details: for Nutsedge, Yellow plant response rating: preemergence; for Plant response rating, Nutsedge, Yellow: Preemergence, 31 g ai/ha, scale 0 to 100, 0 no effect, 100 complete control
# Outline: as §1
# giant foxtail = assay: Test C preemergence; assay type: in vivo, Setaria faberii; details: for Foxtail, Giant plant response rating: preemergence; for Plant response rating, Foxtail, Giant: Preemergence, 31 g ai/ha, scale 0 to 100, 0 no effect, 100 complete control
# Outline: as §1
# barnyardgrass = assay: Test C preemergence; assay type: in vivo, Echinochloa crus-galli; details: for Barnyardgrass plant response rating: preemergence; for Plant response rating, Barnyardgrass: Preemergence, 31 g ai/ha, scale 0 to 100, 0 no effect, 100 complete control
# Outline: as §1
# Italian ryegrass [2] = assay: Test A preemergence; assay type: in vivo, Lolium multiflorum; details: for Plant response rating, Ryegrass, Italian: 125 g ai/ha, 0 to 100 scale where 0 is no effect and 100 is complete control; for Ryegrass, Italian plant response rating: 500 g ai/ha, 0 to 100 scale, 0 no effect, 100 complete control, approx. 10 days
# Outline: as §2
# oilseed rape = assay: Test C preemergence; assay type: in vivo, Brassica napus; details: for Oilseed Rape plant response rating: preemergence; for Plant response rating, Oilseed Rape: Preemergence, 31 g ai/ha, scale 0 to 100, 0 no effect, 100 complete control
# Outline: as §1
# ragweed [3] = assay: Test C preemergence; assay type: in vivo, Ambrosia elatior; details: for Ragweed plant response rating: preemergence; for Plant response rating, Ragweed: Preemergence, 31 g ai/ha, scale 0 to 100, 0 no effect, 100 complete control
# Outline: as §1
# corn = assay: Test C preemergence; assay type: in vivo, Zea mays; details: for Corn plant response rating: preemergence; for Plant response rating, Corn: Preemergence, 31 g ai/ha, scale 0 to 100, 0 no effect, 100 complete control
# Outline: as §1
# blackgrass [4] = assay: Test A postemergence; assay type: in vivo, Alopecurus myosuroides
# Outline: as §2
# blackgrass [5] = assay: Test C preemergence; assay type: in vivo, Alopecurus myosuroides; details: for Blackgrass plant response rating: preemergence; for Plant response rating, Blackgrass: Preemergence, 31 g ai/ha, scale 0 to 100, 0 no effect, 100 complete control
# Outline: as §1
# johnsongrass = assay: Test C preemergence; assay type: in vivo, Sorghum halepense; details: for Johnsongrass plant response rating: preemergence; for Plant response rating, Johnsongrass: Preemergence, 31 g ai/ha, scale 0 to 100, 0 no effect, 100 complete control
# Outline: as §1
# Italian ryegrass [6] = assay: Test A postemergence; assay type: in vivo, Lolium multiflorum; details: 0 to 100 scale where 0 is no effect and 100 is complete control
# Outline: as §2
# galium [7] = assay: Test C preemergence; assay type: in vivo, Galium aparine; details: for Galium plant response rating: preemergence; for Plant response rating, Galium: Preemergence, 31 g ai/ha, scale 0 to 100, 0 no effect, 100 complete control
# Outline: as §1
# large (Lg) crabgrass = assay: Test C preemergence; assay type: in vivo, Digitaria sanguinalis; details: for Crabgrass, Large plant response rating: preemergence; for Plant response rating, Crabgrass, Large: Preemergence, 31 g ai/ha, scale 0 to 100, 0 no effect, 100 complete control
# Outline: as §1
# galium [8] = assay: Test A postemergence; assay type: in vivo, Galium aparine; details: 0 to 100 scale where 0 is no effect and 100 is complete control
# Outline: as §2
# [9] = 16 g ai/ha, scale 0 to 100 (0 no effect, 100 complete control)
# [10] = 62 g ai/ha, scale 0 (no effect) to 100 (complete control)
# [11] = 125 g ai/ha, scale 0 (no effect) to 100 (complete control)
# [12] = 125 g ai/ha, 0 to 100 scale where 0 is no effect and 100 is complete control
compound,measurement,setting,value
Cc1cnc(Oc2cccc(C#N)c2-n2cc(C#N)cn2)nc1 [Compound 90],Waterhemp plant response rating,waterhemp; [9],85
same,Waterhemp plant response rating,waterhemp; [10],100
same,Waterhemp plant response rating,waterhemp; [11],100
same,"Plant response rating, Waterhemp",waterhemp,100
same,Pigweed plant response rating,pigweed; [9],40
same,Pigweed plant response rating,pigweed; [10],98
same,Pigweed plant response rating,pigweed; [11],100
same,"Plant response rating, Pigweed",pigweed,85
same,Lambsquarters plant response rating,lambsquarters; [9],100
same,Lambsquarters plant response rating,lambsquarters; [10],100
same,Lambsquarters plant response rating,lambsquarters; [11],100
same,"Plant response rating, Lambsquarters",lambsquarters,98
same,"Plant response rating, Ragweed",ragweed [1],50
same,Ragweed plant response rating,ragweed [1],80
same,"Nutsedge, Yellow plant response rating",yellow nutsedge; [9],35
same,"Nutsedge, Yellow plant response rating",yellow nutsedge; [10],5
same,"Nutsedge, Yellow plant response rating",yellow nutsedge; [11],60
same,"Plant response rating, Nutsedge, Yellow",yellow nutsedge,0
same,"Foxtail, Giant plant response rating",giant foxtail; [9],5
same,"Foxtail, Giant plant response rating",giant foxtail; [10],75
same,"Foxtail, Giant plant response rating",giant foxtail; [11],100
same,"Plant response rating, Foxtail, Giant",giant foxtail,45
same,Barnyardgrass plant response rating,barnyardgrass; [9],0
same,Barnyardgrass plant response rating,barnyardgrass; [10],75
same,Barnyardgrass plant response rating,barnyardgrass; [11],85
same,"Plant response rating, Barnyardgrass",barnyardgrass,5
same,"Plant response rating, Ryegrass, Italian",Italian ryegrass [2],0
same,"Ryegrass, Italian plant response rating",Italian ryegrass [2],30
same,Oilseed Rape plant response rating,oilseed rape; [9],60
same,Oilseed Rape plant response rating,oilseed rape; [10],98
same,Oilseed Rape plant response rating,oilseed rape; [11],100
same,"Plant response rating, Oilseed Rape",oilseed rape,80
same,Ragweed plant response rating,ragweed [3]; [9],10
same,Ragweed plant response rating,ragweed [3]; [10],100
same,Ragweed plant response rating,ragweed [3]; [11],95
same,"Plant response rating, Ragweed",ragweed [3],60
same,Corn plant response rating,corn; [9],0
same,Corn plant response rating,corn; [10],10
same,Corn plant response rating,corn; [11],45
same,"Plant response rating, Corn",corn,0
same,"Plant response rating, Blackgrass",blackgrass [4]; [12],50
same,"Plant response rating, Blackgrass","blackgrass [4]; 500 g ai/ha, 0 to 100 scale where 0 is no effect and 100 is complete control",70
same,Blackgrass plant response rating,blackgrass [5]; [9],5
same,Blackgrass plant response rating,blackgrass [5]; [10],30
same,Blackgrass plant response rating,blackgrass [5]; [11],85
same,"Plant response rating, Blackgrass",blackgrass [5],5
same,Johnsongrass plant response rating,johnsongrass; [9],5
same,Johnsongrass plant response rating,johnsongrass; [10],20
same,Johnsongrass plant response rating,johnsongrass; [11],80
same,"Plant response rating, Johnsongrass",johnsongrass,10
same,"Plant response rating, Ryegrass, Italian",Italian ryegrass [6]; 125 g ai/ha,30
same,"Plant response rating, Ryegrass, Italian",Italian ryegrass [6]; 500 g ai/ha,80
same,Galium plant response rating,galium [7]; [9],5
same,Galium plant response rating,galium [7]; [10],100
same,Galium plant response rating,galium [7]; [11],98
same,"Plant response rating, Galium",galium [7],5
same,"Crabgrass, Large plant response rating",large (Lg) crabgrass; [9],25
same,"Crabgrass, Large plant response rating",large (Lg) crabgrass; [10],98
same,"Crabgrass, Large plant response rating",large (Lg) crabgrass; [11],100
same,"Plant response rating, Crabgrass, Large",large (Lg) crabgrass,98
same,"Plant response rating, Galium",galium [8]; 125 g ai/ha,90
same,"Plant response rating, Galium",galium [8]; 500 g ai/ha,100
CC(C)c1cnn(-c2c(C#N)cccc2Oc2ncc(Cl)cn2)c1 [Compound 85],Waterhemp plant response rating,waterhemp; [9],55
same,Waterhemp plant response rating,waterhemp; [10],100
same,Waterhemp plant response rating,waterhemp; [11],100
same,"Plant response rating, Waterhemp",waterhemp,85
same,Pigweed plant response rating,pigweed; [9],50
same,Pigweed plant response rating,pigweed; [10],100
same,Pigweed plant response rating,pigweed; [11],100
same,"Plant response rating, Pigweed",pigweed,40
same,Lambsquarters plant response rating,lambsquarters; [9],65
same,Lambsquarters plant response rating,lambsquarters; [10],100
same,Lambsquarters plant response rating,lambsquarters; [11],100
same,"Plant response rating, Lambsquarters",lambsquarters,100
same,"Plant response rating, Ragweed",ragweed [1],40
same,Ragweed plant response rating,ragweed [1],60
same,"Nutsedge, Yellow plant response rating",yellow nutsedge; [9],0
same,"Nutsedge, Yellow plant response rating",yellow nutsedge; [10],5
same,"Nutsedge, Yellow plant response rating",yellow nutsedge; [11],20
same,"Plant response rating, Nutsedge, Yellow",yellow nutsedge,0
same,"Foxtail, Giant plant response rating",giant foxtail; [9],20
same,"Foxtail, Giant plant response rating",giant foxtail; [10],90
same,"Foxtail, Giant plant response rating",giant foxtail; [11],100
same,"Plant response rating, Foxtail, Giant",giant foxtail,35
same,Barnyardgrass plant response rating,barnyardgrass; [9],0
same,Barnyardgrass plant response rating,barnyardgrass; [10],75
same,Barnyardgrass plant response rating,barnyardgrass; [11],95
same,"Plant response rating, Barnyardgrass",barnyardgrass,15
same,"Plant response rating, Ryegrass, Italian",Italian ryegrass [2],0
same,"Ryegrass, Italian plant response rating",Italian ryegrass [2],40
same,Oilseed Rape plant response rating,oilseed rape; [9],0
same,Oilseed Rape plant response rating,oilseed rape; [10],90
same,Oilseed Rape plant response rating,oilseed rape; [11],98
same,"Plant response rating, Oilseed Rape",oilseed rape,40
same,Ragweed plant response rating,ragweed [3]; [9],0
same,Ragweed plant response rating,ragweed [3]; [10],50
same,Ragweed plant response rating,ragweed [3]; [11],65
same,"Plant response rating, Ragweed",ragweed [3],0
same,Corn plant response rating,corn; [9],5
same,Corn plant response rating,corn; [10],5
same,Corn plant response rating,corn; [11],45
same,"Plant response rating, Corn",corn,10
same,"Plant response rating, Blackgrass",blackgrass [4]; [12],70
same,"Plant response rating, Blackgrass","blackgrass [4]; 500 g ai/ha, 0 to 100 scale, 0 no effect, 100 complete control",80
same,Blackgrass plant response rating,blackgrass [5]; [9],0
same,Blackgrass plant response rating,blackgrass [5]; [10],10
same,Blackgrass plant response rating,blackgrass [5]; [11],90
same,"Plant response rating, Blackgrass",blackgrass [5],5
same,Johnsongrass plant response rating,johnsongrass; [9],15
same,Johnsongrass plant response rating,johnsongrass; [10],55
same,Johnsongrass plant response rating,johnsongrass; [11],85
same,"Plant response rating, Johnsongrass",johnsongrass,20
same,"Plant response rating, Ryegrass, Italian",Italian ryegrass [6]; 125 g ai/ha,60
same,"Plant response rating, Ryegrass, Italian",Italian ryegrass [6]; 500 g ai/ha,100
same,Galium plant response rating,galium [7]; [9],0
same,Galium plant response rating,galium [7]; [10],50
same,Galium plant response rating,galium [7]; [11],85
same,"Plant response rating, Galium",galium [7],0
same,"Crabgrass, Large plant response rating",large (Lg) crabgrass; [9],65
same,"Crabgrass, Large plant response rating",large (Lg) crabgrass; [10],100
same,"Crabgrass, Large plant response rating",large (Lg) crabgrass; [11],100
same,"Plant response rating, Crabgrass, Large",large (Lg) crabgrass,90
same,"Plant response rating, Galium",galium [8]; 125 g ai/ha,90
same,"Plant response rating, Galium",galium [8]; 500 g ai/ha,100
